Test results from patent publication US10478390B2, “Use of glycosides to increase hair mass” (L'OREAL, priority 2015, dated 2019).

Tested on: hair follicles from biopsies of human scalps
Test: Hair follicles cultured in vitro for 8 days: increase in the diameter of the hair shaft (fiber)
Format: cell-based
Details: for average % of increase of the diameter of the shafts: same test as for proxylane, method states each glycoside at 10 μM, d0 to d8; for average % of increase between D0 and D8: PX 1 mM, hair shaft diameter
Procedure: The hair follicles come from biopsies of human scalps, from cosmetic surgery operations conducted on white Caucasian women aged 45 to 75 years.
The hair follicles are dissected according to the method described in patent application FR 2 736 721 and U.S. Pat. No. 5,712,169, and only the terminal anagen and pigmented hair follicles are studied.
Freshly dissected hair follicles are introduced into multi-well plates containing 500 μL of William's medium, Invitrogen reference 22551022, enriched with insulin to […], 10 ng/mL of hydrocortisone, 10 μg/mL of L-Glutamine and 0.5% antibiotics (Gibco, reference 15240-096).
The C-glycosides are then incubated versus a vehicle alone (control condition), the hair follicles are placed in the incubator (37° C., 5% CO2) and kept alive in these different conditions for 8 days. The culture mediums (of the treated and control conditions) are replaced every two days.
Each glycoside is studied at 10 μM, (dilution of the solid compound in water), versus the vehicle alone (water) for the control condition.
Each condition is carried out on 12 different hair follicles, which makes it possible to overcome inter-follicle variabilities, and repeated over 3 different subjects (biopsies of scalp from 3 different volunteers) in order to evaluate the robustness of the results, and to overcome inter-donor variability.
During the 8 days of treatment, all of the hair follicles are observed and photographed every two days in order to evaluate the maintaining of their survival. They are also measured using a binocular magnifier (Leica) provided with a micrometric eyepiece in order to ensure the proper growth thereof.
The diameter of the hair shaft is measured using photographs taken of all of the hair follicles at d0 and at d8. Using the Leica Application Suite software (Leica), the hair shaft is cropped, its surface is then calculated and its average diameter is determined. The increase in the diameter of the fiber generated in vitro is determined by: (average diameter at d8 Dd8−average diameter at d0 Dd0)*100/Dd0.

Row | SMILES | average % of increase of the diameter of the shafts | thickness of the newly-formed hair shaft (for each subject, in the presence of proxylane) | average % of increase between D0 and D8 (individual 1, control +9.7) | average % of increase between D0 and D8 (individual 2, control +2.7) | average % of increase between D0 and D8 (individual 3, control +4.3)
1 | OC1OC[C@@H](O)[C@H](O)[C@H]1O (stereo partly drawn) [Glycoside 4, D-xylose] | 11% |  |  |  | 
2 | O[C@H]1[C@H](O)COC(OCCc2ccccc2)[C@@H]1O (stereo partly drawn) [Glycoside 3, 2-phenylethyl D-xylopyranoside] | 16% |  |  |  | 
3 | COc1cc(CCC(O)CC2OC[C@@H](O)[C@H](O)[C@H]2O)ccc1O (stereo partly drawn) [Glycoside 2, (3R,4S,5R)-2-[2-hydroxy-4-(4-hydroxy-3methxyphenyl)butyl] tetrahydro-2Hpyran-3,4,5-triol] | 12.7% |  |  |  | 
4 | CC(O)C[C@@H]1OC[C@@H](O)[C@H](O)[C@H]1O (stereo partly drawn) [PX, 1,5-anhydro-6,8-dideoxy-L-gluco-octitol (Proxylane)] |  | increase in the thickness of the newly-formed hair shaft is observed | +17.5% | +11.2% | +14.5%
